Key:
[1] = test system: DLD1; assay: CellTiterGlo cell viability assay, DLD1; format: cell-based; details: Homo sapiens, DLD-1; DLD1, colorectal cancer, p53 S241F, 72 hours
Protocol: (§1) • 1) Cell lines: HT29, SW480, DLD-1, HCT116, and p53-null HCT116 cells, H1975, MDA-MD-231, U251, FaDu, CAL-27, PANC-1, Aspc-1, and MRC5 were obtained from the ATCC and cultured as recommended. Cells were regularly authenticated by bioluminescence, growth, and morphologic observation. The cells were routinely examined for Mycoplasma and all cell lines underwent STR authentication. • 2) Western blotting: After treatment, protein lysates were collected for Western blot analysis. 15 μg of protein was used for SDS-PAGE. After primary and secondary antibody incubations, the signal was detected by chemiluminescent detection kit, imaged by Syngene (Imgen Technologies). […] The cell viability was assessed by CellTiterGlo bioluminescent cell proliferation assay (Promega), following the manufacturer's protocol. Bioluminescence imaging was measured using the IVIS imager. Percentage of cell viability (mean±SEM) at each dose was calculated against the respective DMSO control. The IC50 values were determined from the sigmoidal dose-response curves using GraphPad Prims4. • 4) Caspase activity assay: Cells were seeded in 96-well plate (1×10^4 cells/well). […] The caspase 3/7 activity was assessed by Caspase-Glo® 3/7 Assay kit (Promega), following the manufacturer's protocol. Bioluminescence imaging was measured using the IVIS imager. […]

[2] = test system: CAL-27; assay: CellTiterGlo cell viability assay, CAL-27; format: cell-based; details: Homo sapiens; CAL-27, head & neck squamous cell carcinoma, p53 H193L, 72 hours
Protocol: as §1

[3] = test system: PANC-1; assay: CellTiterGlo cell viability assay, PANC-1; format: cell-based; details: Homo sapiens; PANC-1, pancreatic cancer, p53 R273H, 72 hours
Protocol: as §1

[4] = test system: U251; assay: CellTiterGlo cell viability assay, U251; format: cell-based; details: Homo sapiens, U-251; U251, glioblastoma multiforme, p53 R273H, 72 hours
Protocol: as §1

[5] = test system: SW480, DLD1 and p53-null cell line HCT116; assay: CellTiter-Glo luminescent cell viability assay (Example 1); format: cell-based, human
Protocol: SW480, DLD-1, DLD1-p73KD, HCT116, and p53-null HCT116, MRC5 and Wi38 cells were seeded at 5,000 cells per well on 96-well plates. […] Then, cells were mixed with an equal volume of CellTiter-Glo® reagents (Promega), following the manufacturer's protocol, and bioluminescence imaging was measured using the IVIS imager.

[6] = test system: HT29 cells; assay: qRT-PCR of p53 target gene mRNA, HT29; format: cell-based, human; details: HT29, 1 μM, 8 and 19 hours post-treatment
Protocol: as §1

[7] = test system: SW480 cells; assay: qRT-PCR of p53 target gene mRNA, SW480; format: cell-based, human; details: SW480, 1 μM
Protocol: Total RNA was isolated from PG3-Oc-treated cells using the Quick-RNA mini prep kit (Zymo Research, Irvine, CA) according to the manufacturer's protocol. 500 ng of total RNA was used to generate cDNA using SuperScript III first-strand synthesis system with random primers (Invitrogen), following the manufacturer's protocol. Real-time PCR was performed using POWER SYBR GREEN mast mix (Applied Biosystem) for DR5, p21, PUMA, GAPDH, and TaqMan primer-probes for detection of c-Myc mRNA levels on 7900HT Sequence Detection System (Applied Biosystem). Primers having SEQ ID NOs:1-6 (see above) were used. Taq Prob IDs for c-Myc (HS 00153408) and GAPDH (HA 99999905). ΔΔCt method was used to analyze and report fold changes of the indicated genes.

[8] = test system: ATF4 and CHOP in DLD1 cells; assay: Western blot of ATF4 and CHOP, DLD1; format: cell-based, human
Protocol: as §1

[9] = test system: panel of CRC cell lines; assay: Colony formation assay (long-term cell proliferation); format: cell-based, human; details: low dose
Protocol: Five hundred cells were seeded per well in 6-well plates and treated with different concentrations of compounds for 24 hours, then, cells were cultured with drug-free complete medium for 2 weeks with fresh medium changed every 7 days. Cells were fixed with 10% formalin and stained with 0.05% crystal violet at the end of 2 weeks period of cell culture (Franken et al., Nat. Protoc., 2006, 1, 2315-9).

In the case of `CCCCCCCCOC(=O)CCc1c(C)[nH]c(/C=C2\N=C(c3ccc[nH]3)C=C2OC)c1C` [PG3-Oc, Octyl (Z)-3-(5-((4′-methoxy-1H,5′H-[2,2′-bipyrrol]-5′-ylidene)methyl)-2,4-dimethyl-1H-pyrrol-3-yl)propanoate], the IC50 [1] is reported as 54 nM, the IC50 [2] is reported as 33.9 nM and the IC50 [3] is reported as 136 nM. The IC50 [4] was 100 nM, the “induction of cell death” value ([5]; SW480, DLD1, p53-null HCT116) was “potently induced cell death” and the IC50 values ([5]; SW480, DLD1, p53-null HCT116, 72 hours) was “within nanomolar range”. The “induction of p21 mRNA” value [6] was “Over 3 fold”, the “induction of p21 mRNA” value ([7]; 8 and 19 hours post-treatment) was “no significant change” and the “DR5 mRNA upregulation” value ([7]; 19 hours post-treatment) was “about 2 fold”. For the same molecule, the “concentration at which induction of ATF4 and CHOP occurred” value [8] was 5 µM and the “inhibition in long-term cell proliferation” value [9] was “Over 90%”.

Source: patent US12344599B2, “Prodigiosin analogs and methods of use” (Institute For Cancer Research, priority 2016, dated 2025)
